According to article PMC8948292, “Combining PEGylated mito-atovaquone with MCT and Krebs cycle redox inhibitors as a potential strategy to abrogate tumor cell proliferation” (Scientific Reports, 2022):

How the values were obtained:
MiaPaCa-2 cells [1] = experiment: Cell proliferation (cell confluence), IncuCyte Live-Cell Analysis System; type: cell-based, human; conditions: for Cell confluence (% of control): MiaPaCa-2 cells, control ~90% confluence
Summary of the method: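 MiaPaCa-2 cells in DMEM with 10% FBS, plated at 1,000 cells/well in triplicate and adhered overnight, then treated with Mito-PEG-ATO analogs. Confluence imaged label-free over several days, increase in percent confluence serving as proliferation surrogate.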

[2] = system: mitochondrial respiration (OCR) in intact MiaPaCa-2 cells; experiment: Intact cell mitochondrial respiration (basal OCR), Seahorse XF-96; type: cell-based, human
Summary of the method: (§1)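 MiaPaCa-2 cells were treated 24 h with Mito-PEG-ATO analogs, and OCR was read on a Seahorse XF-96; basal respiration was taken in intact cells. For complex I, permeabilized cells received 10 mM pyruvate, 1.5 mM malate and 10 mM malonate; for complex III, 0.5 mM duroquinol, 1 µM rotenone and 10 mM malonate, both in mannitol/sucrose buffer. IC50 values were derived from the OCR data.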

[3] = target: mitochondrial complex III (MiaPaCa-2 cells) (Homo sapiens, UniProt P00156); experiment: Complex III-dependent oxygen consumption in permeabilized cells, Seahorse XF-96; type: cell-based
Sequence of mitochondrial complex III (MiaPaCa-2 cells) (P00156 whole entry): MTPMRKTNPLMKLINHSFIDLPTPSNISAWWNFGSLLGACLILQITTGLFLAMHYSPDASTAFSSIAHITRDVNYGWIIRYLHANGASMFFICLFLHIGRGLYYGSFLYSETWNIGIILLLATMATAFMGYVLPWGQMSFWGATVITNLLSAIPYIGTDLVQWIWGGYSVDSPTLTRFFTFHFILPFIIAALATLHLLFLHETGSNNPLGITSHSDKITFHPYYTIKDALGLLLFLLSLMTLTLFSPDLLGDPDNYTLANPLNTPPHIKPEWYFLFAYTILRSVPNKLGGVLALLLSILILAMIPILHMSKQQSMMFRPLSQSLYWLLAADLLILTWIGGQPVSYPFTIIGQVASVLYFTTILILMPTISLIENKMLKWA
Sequence of mitochondrial complex III (MiaPaCa-2 cells) (P47985 whole entry partner): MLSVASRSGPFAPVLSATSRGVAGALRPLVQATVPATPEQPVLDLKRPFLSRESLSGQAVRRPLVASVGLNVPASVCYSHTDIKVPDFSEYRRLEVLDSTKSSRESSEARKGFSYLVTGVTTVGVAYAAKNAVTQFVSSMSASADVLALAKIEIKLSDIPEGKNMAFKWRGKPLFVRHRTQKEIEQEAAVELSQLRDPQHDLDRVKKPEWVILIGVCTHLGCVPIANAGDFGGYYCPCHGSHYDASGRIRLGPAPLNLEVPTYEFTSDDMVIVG
Summary of the method: as §1

[4] = system: mitochondrial respiration (OCR) in intact U87MG cells; experiment: Intact cell mitochondrial respiration (basal OCR), Seahorse XF-96; type: cell-based, human; conditions: 24 h treatment
Description: (§2) Mitochondrial oxygen consumption was measured using the Seahorse XF-96 Extracellular Flux Analyzer (Agilent, North Billerica, MA)[3],[33],[67],[68]. To determine the intact cell mitochondrial function of MiaPaCa-2 cells in response to Mito-PEG-ATO analogs, we used the bioenergetic function assay previously described[2],[3]. […] From these measurements, indices of mitochondrial function were determined as previously described[2],[3]. For mitochondrial complex activities assays, after cells were treated with Mito-PEG-ATO analogs for 24 h, the OCR-based assessment of mitochondrial complex activities was carried out on acutely permeabilized cells in the presence of different mitochondrial substrates, i.e., pyruvate/malate for complex I and duroquinol for complex III[3],[32],[34],[69]. Rotenone, malonate, and antimycin A (Sigma-Aldrich, St. Louis, MO) were used as specific inhibitors of mitochondrial complexes I, II, and III, respectively. […] The IC50 values were determined as previously reported.
Figure S8. […] (b) After eight baseline OCR measurements, the response to mitochondrial modulators (oligomycin, dinitrophenol, and rotenone/antimycin A as described in the Methods section) were recorded. The last three stable baseline OCR reading before oligomycin injection was plotted against the concentration of Mito-PEG4-ATO (red open box). […]

[5] = system: mitochondrial complex I (U87MG cells); experiment: Complex I-dependent oxygen consumption, Seahorse XF-96; type: cell-based, human
Description: as §2, with “respectively. Briefly, cells that were intact after treatments were immediately permeabilized using the Seahorse XF Plasma Membrane Permeabilizer (Agilent). The mitochondrial complex I-induced OCR was assayed in mannitol and sucrose buffer[69] containing 10 mM pyruvate and 1.5 mM malate (substrates for complex I) and 10 mM malonate (which inhibits complex II activities).” for “respectively.”, “reported. […]” for “reported.”

[6] = target: T1, mitochondrial complex III (U87MG cells) (Homo sapiens, UniProt P00156); experiment: Complex III-dependent oxygen consumption, Seahorse XF-96; type: cell-based
T1 construct: endogenous in cells; host or cells: U87MG (ATCC HTB-14)
T1 sequence (P00156 whole entry): as the sequence (P00156 whole entry) above
T1 sequence (P47985 whole entry partner): as the sequence (P47985 whole entry partner) above
Description: as §2, with “respectively. Briefly, cells that were intact after treatments were immediately permeabilized using the Seahorse XF Plasma Membrane Permeabilizer (Agilent). The mitochondrial complex I-induced OCR was assayed in mannitol and sucrose buffer[69] containing 10 mM pyruvate and 1.5 mM malate (substrates for complex I) and 10 mM malonate (which inhibits complex II activities).” for “respectively.”, “reported. […]” for “reported.”

MiaPaCa-2 cells [7] = experiment: Basal extracellular acidification rate (ECAR) in intact cells; type: cell-based, human; conditions: 24 h treatment
Description: as §2, with “respectively. Briefly, cells that were intact after treatments were immediately permeabilized using the Seahorse XF Plasma Membrane Permeabilizer (Agilent). The mitochondrial complex I-induced OCR was assayed in mannitol and sucrose buffer[69] containing 10 mM pyruvate and 1.5 mM malate (substrates for complex I) and 10 mM malonate (which inhibits complex II activities).” for “respectively.”, “reported. […]” for “reported.”

U87MG cells = experiment: as above; type: cell-based, human

O=C1C(OCCOCCOCCOCC[P+](c2ccccc2)(c2ccccc2)c2ccccc2)=C([C@H]2CC[C@H](c3ccc(Cl)cc3)CC2)C(=O)c2ccccc21.[Br-] [Mito-PEG4-ATO, [2-(2-(2-(2-((3-(trans-4-(4-chlorophenyl)cyclohexyl)-1,4-dioxo-1,4-dihydronaphthalen-2-yl)oxy)ethoxy)ethoxy)ethoxy)ethyl]triphenylphosphonium bromide]
IC50 (MiaPaCa-2 cells [1]; Homo sapiens, MIA PaCa-2, read-out: IC50, inhibition of cell proliferation): 140 nM
Cell confluence (% of control) (MiaPaCa-2 cells [1]; 0.005 µM): 100.53 % of control
Cell confluence (% of control) (MiaPaCa-2 cells [1]; 0.02 µM): 101.08 % of control
Cell confluence (% of control) (MiaPaCa-2 cells [1]; 0.05 µM): 100.72 % of control
Cell confluence (% of control) (MiaPaCa-2 cells [1]; 0.08 µM): 98.94 % of control
Cell confluence (% of control) (MiaPaCa-2 cells [1]; 0.16 µM): 29.68 % of control
Cell confluence (% of control) (MiaPaCa-2 cells [1]; 0.32 µM): 3.32 % of control
Cell confluence (% of control) (MiaPaCa-2 cells [1]; 0.48 µM): 3.11 % of control
Cell confluence (% of control) (MiaPaCa-2 cells [1]; 0.8 µM): 3.18 % of control
Cell confluence (% of control) (MiaPaCa-2 cells [1]; 1.6 µM): 2.81 % of control
Cell confluence (% of control) (MiaPaCa-2 cells [1]; 4.8 µM): 2.52 % of control
OCR (pmol/min/µg protein) ([2]; 0.003 µM, 24 h treatment, intact MiaPaCa-2 cells, baseline OCR, mean, n=4): 20.44 pmol/min/µg protein
OCR (basal, intact cell mitochondrial respiration) ([2]; 0.01 µM, 24 h treatment, intact MiaPaCa-2 cells, mean, n=4): 17.79 pmol/min/µg protein
OCR (basal, intact cell mitochondrial respiration) ([2]; 0.03 µM, 24 h treatment, intact MiaPaCa-2 cells, mean, n=4): 17.72 pmol/min/µg protein
OCR (basal, intact cell mitochondrial respiration) ([2]; 0.05 µM, 24 h treatment, intact MiaPaCa-2 cells, mean, n=4): 16.82 pmol/min/µg protein
OCR (basal, intact cell mitochondrial respiration) ([2]; 0.1 µM, 24 h treatment, intact MiaPaCa-2 cells, mean, n=4): 13.38 pmol/min/µg protein
OCR (basal, intact cell mitochondrial respiration) ([2]; 0.2 µM, 24 h treatment, intact MiaPaCa-2 cells, mean, n=4): 9.15 pmol/min/µg protein
OCR (basal, intact cell mitochondrial respiration) ([2]; 0.3 µM, 24 h treatment, intact MiaPaCa-2 cells, mean, n=4): 6.10 pmol/min/µg protein
OCR (basal, intact cell mitochondrial respiration) ([2]; 0.5 µM, 24 h treatment, intact MiaPaCa-2 cells, mean, n=4): 3.29 pmol/min/µg protein
OCR (basal, intact cell mitochondrial respiration) ([2]; 1 µM, 24 h treatment, intact MiaPaCa-2 cells, mean, n=4): 1.41 pmol/min/µg protein
OCR (basal, intact cell mitochondrial respiration) ([2]; 3 µM, 24 h treatment, intact MiaPaCa-2 cells, mean, n=4): 0.43 pmol/min/µg protein
OCR (basal, intact cell mitochondrial respiration) ([2]; 10 µM, 24 h treatment, intact MiaPaCa-2 cells, mean, n=4): 0.42 pmol/min/µg protein
IC50 ([2]; Homo sapiens, MIA PaCa-2, 24 h, read-out: IC50, inhibition of basal OCR in intact cells): 260 nM
Complex III activity (OCR, % of control) ([3]; 0.02 µM): 98.8 % of control
Complex III activity (OCR, % of control) ([3]; 0.05 µM): 96.0 % of control
Complex III activity (OCR, % of control) ([3]; 0.08 µM): 99.9 % of control
Complex III activity (OCR, % of control) ([3]; 0.16 µM): 96.5 % of control
Complex III activity (OCR, % of control) ([3]; 0.32 µM): 90.1 % of control
Complex III activity (OCR, % of control) ([3]; 0.5 µM): 92.4 % of control
Complex III activity (OCR, % of control) ([3]; 0.8 µM): 76.5 % of control
Complex III activity (OCR, % of control) ([3]; 1.6 µM): 51.9 % of control
Complex III activity (OCR, % of control) ([3]; 5 µM): 24.8 % of control
IC50 ([3]; MiaPaCa-2 cells, 24 h treatment, antimycin A-inhibitable OCR, read-out: IC50, complex III-induced oxygen consumption (Complex III activity)): 1700 nM
OCR in intact cells [4]: suppressed
Complex I-induced oxygen consumption [5]: inhibited
Complex III-induced oxygen consumption [6]: inhibited
ECAR (MiaPaCa-2 cells [7]): stimulated ECAR
ECAR (U87MG cells): stimulated ECAR
